From patent US7416741B2, “Copper lowering treatment of inflammatory and fibrotic diseases” (The Regents of the University of Michigan, priority 2002, dated 2008)

Experiments:
[1] = sheep; intravenous 99Mo labeled TM; cited from earlier work
[2] = tested on: carbon tetrachloride (CT) mouse model; assay: Serum ALT in the carbon tetrachloride (CT) mouse model of liver damage; format: in vivo; details: Ex 6; TM from week 5; sacrifice week 12; p<0.0008; protection only partial
Protocol: The carbon tetrachloride (CT) mouse model produces much more liver fibrosis (cirrhosis) than the Con A model. In this model carbon tetrachloride is injected intraperitoneally twice weekly, and after 12 weeks, a well-established cirrhosis should be present. This can be evaluated histologically, and can be quantitated by measuring liver hydroxyproline, a major amino acid in collagen. The TM was started in TM treated animals at the beginning of week 5 and the animals were sacrificed at week 12.
There were 4 animals in the CT group, 4 in the CT/TM group, 2 in the olive oil/TM group, and 1 in the TM group. Since there were so few animals in the last two groups, and since their data were generally similar, they were combined.

In the case of `[SH-].[SH-].[S]=[Mo]=[S]` [TM, tetrathiomolybdate], the excreted in feces [1] is listed as 5%, the excreted in urine [1] is listed as “over 90%” and the “half-time of slow disappearance from plasma” value [1] is listed as “about 40 h”. For the same compound, the “serum ALT, CT/TM group mean vs CT group” value [2] was “significantly lower”.
